The source of these data is PubChem BioAssay AID857 (Vanderbilt High Throughput Screening Facility, 2007).

The source made the active and inactive calls.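 Rule for the calls: active = a full or partial dose-response curve in at least two of three replicate runs; inactive = the rest.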

For this assay, the target named is D(1B) dopamine receptor (Homo sapiens) (UniProt P21918). The assay can be described thus: dopamine D5 receptor modulation at EC30 dopamine, dose response, selectivity assay for D1 allosteric modulator project, cell-based, HEK293, CRE-luciferase, luminescence (AID 857).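 Note: HEK 293 cells expressing human D5 with a CRE-driven luciferase reporter.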
Sequence of D(1B) dopamine receptor (Homo sapiens) (P21918 whole entry, looked up): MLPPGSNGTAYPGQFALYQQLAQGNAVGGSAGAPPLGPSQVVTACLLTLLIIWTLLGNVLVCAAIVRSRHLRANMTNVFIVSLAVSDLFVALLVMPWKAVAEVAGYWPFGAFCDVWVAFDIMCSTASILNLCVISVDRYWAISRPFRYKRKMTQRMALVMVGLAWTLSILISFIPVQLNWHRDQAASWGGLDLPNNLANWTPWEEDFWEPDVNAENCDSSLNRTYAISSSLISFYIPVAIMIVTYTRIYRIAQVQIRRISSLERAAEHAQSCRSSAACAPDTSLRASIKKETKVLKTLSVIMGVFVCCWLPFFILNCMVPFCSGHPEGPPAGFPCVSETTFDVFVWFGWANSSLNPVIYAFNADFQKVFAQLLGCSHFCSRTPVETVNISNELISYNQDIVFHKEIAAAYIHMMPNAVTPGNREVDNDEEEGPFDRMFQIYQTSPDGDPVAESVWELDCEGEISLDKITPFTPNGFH

The term EC50 denotes the concentration needed to bring the measured effect to its halfway point. Regarding `COCc1cc(C)nc2sc(C(=O)N3CCN(c4ccccc4)CC3)c(N)c12`, the EC50 was 212 nM.
As to `Cc1ccc(-c2cc(-c3ccc4c(c3)OCO4)c(C#N)c(N)n2)o1`, the result was inactive.
Regarding `CC1CCCCN1C(=O)CSc1nc(C2CC2)nc2c1cnn2-c1ccccc1` (stereo unspecified), the result was inactive.
Turning to `O=C(NCc1cccs1)C1CC(c2ccccc2O)=NO1` (stereo unspecified), the result was inactive.
As for `CCOC(=O)NCCc1ccc(OC)cc1`, the outcome was inactive.
For `COc1ccc(-c2noc(CCC(N)=O)n2)cc1OC`, the outcome was inactive.
On to `Nc1nc(SCc2ccc3c(c2)OCCO3)n[nH]1`, for which the outcome was inactive.
With `COC(=O)c1sc2ccccc2c1C(=O)OC`, the result was inactive.
Turning to `COC(=O)c1c(NC(=O)Cc2cccs2)sc2c1CCC(C)C2` (stereo unspecified), the result was inactive.
Turning to `Cc1ccc(-n2cnnn2)c2cccnc12`, the outcome was inactive.
For the molecule `CCCCN(CC)C(=O)c1ccc(Cl)c(Cl)c1`, the result was inactive.
Same read-out and setting: the value for `COc1ccc(CN2CCN(S(=O)(=O)c3ccccc3)CC2)c(OC)c1` was “inactive”.
As to `COCCNC(=O)c1c(NC(=O)c2ccco2)n(Cc2ccccc2)c2nc3ccccc3nc12`, the outcome was inactive.
Still for that read-out and setting: the value for `Cc1cccc(-c2c3c(=O)n(C)c(=O)n(C)c3cn2-c2ccccc2O)c1` was “inactive”.
In the case of `CCCn1c(=NC(C)=O)c(C(=O)OCC)cc2c(=O)n3ccccc3nc21`, the result was inactive.
For `C=CCn1c(SCc2nc3c(c(=O)[nH]c(=O)n3CCCC)n2CCC)nnc1-c1ccccc1`, the result was inactive.
Still for that read-out and setting: to `Fc1cc(Br)ccc1Nc1nc2ccccc2n2nnnc12` belongs “inactive”; to `O=C(NCc1ccco1)c1cnn2c(C(F)(F)F)cc(-c3ccco3)nc12`, “inactive”.
As for `COc1ccc(Cn2nnc3c(=O)[nH]c(C4CCCN(C(=O)c5ccccc5)C4)nc32)cc1` (stereo unspecified), the result was inactive.
As to `Cc1nc2ccc(CCO)cc2s1`, the result was inactive.
Take `CCN(CC)CCOc1c(Br)ccc2c1sc1nc3n(c(=O)c12)CCC3`: the result was inactive.
For the molecule `Cc1cc(Br)c2c(c1)=C(c1sc(N3CCCCCC3)nc1O)C(=O)N=2`, the EC50 was 1030 nM.
Regarding `CSc1oc(-c2ccco2)nc1S(=O)(=O)c1ccc(F)cc1`, the result was inactive.
The same measure, in the same setting: to `CCOC(=O)c1sc(NC(=O)CSc2nncs2)c(C(=O)OCC)c1C` belongs “inactive”.
Consider `COc1cccc(-c2nnc(SCC(=O)Nc3cc(C)on3)o2)c1`, for which the outcome was inactive.
In the case of `CCOC(=O)c1c(NC(=O)c2cccs2)sc(C)c1CC`, the result was inactive.
Still for that read-out and setting: to `CCCCCn1c(NCc2ccco2)nc2ccccc21` belongs “inactive”; to `COc1ncnc2c1N[C@@](C)(O)c1c(F)c(F)c(F)c(F)c1S2`, “inactive”.
Still for that read-out and setting: to `CCc1nc(N)c(C#N)c(-c2ccncc2)c1C` belongs “inactive”; to `CCCc1nc2sc3c(SCC(=O)NCc4ccco4)ncnc3c2c2c1CCC2`, “inactive”; to `c1ccc(C2CC(c3ccccc3)n3ncnc3N2)cc1` (stereo unspecified), “inactive”.
Regarding `c1ccc(Cn2nnc3c(N4CCc5ccccc54)ncnc32)cc1`, the result was inactive.
Turning to `CC(C)Sc1nc2c(c(=O)n1C)SC(C)C2` (stereo unspecified), the outcome was inactive.
Turning to `CCCc1cc(C(=O)Nc2sc(C(C)=O)c(C)c2C(=O)OCC)no1`, the outcome was inactive.
Same read-out and setting: to `CC(=O)Oc1c(Cl)c(N2CCOCC2)c(OC(C)=O)c2ccccc12` belongs “inactive”.
Still for that read-out and setting: the value for `CCCOc1ccccc1NC(=O)c1ccc(N)cc1` was “inactive”.
